Reference: the supplement of paper PMC10307832

Key:
Experiment in all cases: relative viability (nuclei count vs DMSO), 5 days (fraction); higher = more cells survive
[1] = compound: CC1=C(C(=NN1)C)CC2=C(C3=C(S2)N(C(=O)N(C3=O)C)CC(C)C)C(=O)N4C[C@@H](CO4)O
Outline: (§1)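 Viability was read as treated-well nuclei divided by vehicle-well nuclei, using the median across plates. Lung cancer cell lines in 1536-well plates were kept overnight at 37 °C, pinned with five √10-spaced library-drug doses, and after 5 days were Hoechst-stained, imaged at 4× and counted in MetaXpress. Plates passed only with control CV below 25% and at least one doubling.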

IDH-C35 = compound: Cc1ccccc1C(C(=O)NC1CCCCC1)N(C(=O)Cn1ccnc1C)c1cccc(F)c1 [IDH-C35]
Outline: as §1

[2] = compound: CC1=C(C(=NN1)C)CC2=C(C3=C(S2)N(C(=O)N(C3=O)C)CC(C)C)C(=O)N4C[C@@H](CO4)O + Cc1nc(NC(=O)N2CCC[C@H]2C(N)=O)sc1-c1ccnc(C(C)(C)C(F)(F)F)c1 [Alpelisib] (partner 2 µM)
Outline: (§2)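 Dosing by pin tool came one day after lung cancer cell lines were seeded in 1536-well plates, using either one drug or a fixed anchor-drug dose plus five library-drug doses (not always all listed) in √10 steps. After 5 days, nuclei were counted on 4× images. Relative viability is treated-well nuclei count divided by vehicle-well nuclei count, and values are medians of duplicate plates.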

IDH-C35 + Bortezomib = compound: Cc1ccccc1C(C(=O)NC1CCCCC1)N(C(=O)Cn1ccnc1C)c1cccc(F)c1 [IDH-C35] + CC(C)C[C@H](NC(=O)[C@H](Cc1ccccc1)NC(=O)c1cnccn1)B(O)O [Bortezomib] (partner 0.002 µM)
Outline: as §2

Cell Line | relative viability ([1]; 0.0025 µM) | relative viability ([1]; 0.007906 µM) | relative viability ([1]; 0.025 µM) | relative viability ([1]; 0.07906 µM) | relative viability ([1]; 0.25 µM) | relative viability (IDH-C35; 0.08 µM) | relative viability (IDH-C35; 0.253 µM) | relative viability (IDH-C35; 0.8 µM) | relative viability (IDH-C35; 2.53 µM) | relative viability (IDH-C35; 8 µM) | relative viability ([2]; first compound 0.0025 µM) | relative viability ([2]; first compound 0.007906 µM) | relative viability ([2]; first compound 0.025 µM) | relative viability ([2]; first compound 0.07906 µM) | relative viability ([2]; first compound 0.25 µM) | relative viability (IDH-C35 + Bortezomib; first compound 0.08 µM) | relative viability (IDH-C35 + Bortezomib; first compound 0.253 µM) | relative viability (IDH-C35 + Bortezomib; first compound 0.8 µM) | relative viability (IDH-C35 + Bortezomib; first compound 2.53 µM) | relative viability (IDH-C35 + Bortezomib; first compound 8 µM)
NCI-H2126 | 1.05 | 1.01 | 1 | 0.935 | 1.06 | 1.01 | 1.02 | 0.965 | 0.937 | 0.92 | 0.773 | 0.847 | 0.732 | 0.736 | 0.682 | 1.14 | 1.12 | 1.15 | 1.09 | 1.07
EMC-BAC-2 | 1.07 | 1.11 | 0.898 | 0.995 | 1.05 | 0.962 | 0.988 | 1 | 0.987 | 1.03 | 0.809 | 0.854 | 0.721 | 0.691 | 0.814 | 1.01 | 1.08 | 1.13 | 1.09 | 1.11
NCI-H1993 | 1.05 | 0.91 | 0.963 | 0.843 | 0.884 | 0.843 | 0.955 | 0.891 | 1.02 | 0.955 | 0.69 | 0.608 | 0.719 | 0.615 | 0.722 | 1.07 | 1.03 | 1.16 | 1.19 | 1.24
NCI-H520 | 1.03 | 0.914 | 0.644 | 0.79 | 0.628 | 1.01 | 1.05 | 0.87 | 0.91 | 1 | 0.835 | 1.04 | 0.612 | 0.536 | 0.836 | 0.759 | 0.344 | 0.636 | 0.731 | 0.756
NCI-H647 | 1.03 | 1.1 | 0.932 | 0.915 | 0.934 | 1.03 | 0.94 | 0.972 | 0.936 | 0.949 | 1.16 | 1.03 | 1.19 | 1.32 | 1.75 | 1.08 | 0.805 | 0.989 | 1.19 | 0.889
NCI-H1792 | 0.933 | 0.773 | 0.751 | 0.744 | 0.736 | 0.832 | 0.862 | 0.974 | 0.969 | 1.13 | 0.82 | 0.624 | 0.699 | 0.58 | 0.555 | 0.921 | 0.906 | 0.95 | 0.909 | 0.983
SK-LU-1 | 0.914 | 0.789 | 0.634 | 0.714 | 0.615 | 1.01 | 0.986 | 1.1 | 1.05 | 1.01 | 0.879 | 0.565 | 0.537 | 0.782 | 0.582 | 1.34 | 1.33 | 1.25 |  | 1.03
NCI-H1299 | 1.01 | 1 | 0.952 | 1.01 | 1.03 | 1.04 | 0.952 | 1.01 | 0.991 | 1.01 | 1.07 | 1.08 | 1.01 | 1.09 | 1.11 | 1.02 | 1.01 | 1.03 | 0.964 | 1.03
NCI-H2009 | 1.07 | 1.08 | 0.963 | 1.09 | 1.09 | 1.03 | 1.03 | 1.01 | 0.988 | 0.946 | 1.31 | 1.23 | 1.14 | 1.26 | 1.15 | 1.13 | 1.01 | 1.04 | 1.03 | 0.874
LOU-NH91 | 1 | 0.989 | 1.01 | 1.12 | 1.03 | 0.945 | 0.986 | 0.987 | 0.917 | 0.96 | 0.734 | 0.626 | 0.791 | 0.799 | 0.708 | 0.574 | 0.485 | 0.519 | 0.527 | 0.502
NCI-H2405 | 1.1 | 1.04 | 0.653 | 0.921 | 0.962 | 1.05 | 1 | 0.971 | 0.996 | 1.02 | 0.735 | 0.688 |  | 0.78 | 0.669 | 1 | 1 | 0.97 | 0.972 | 0.875
LCLC-97TM1 | 1.05 | 1.13 | 0.98 | 0.957 | 1.02 | 0.807 | 1.03 | 0.936 |  | 0.91 | 0.276 | 0.206 | 0.257 | 0.188 | 0.228 | 0.616 | 0.691 | 0.53 |  | 0.511
NCI-H596 | 1.09 | 1.13 | 0.978 | 1.04 | 1.11 | 0.884 | 0.938 | 0.972 | 0.925 | 1.01 | 0.474 | 0.53 | 0.482 | 0.567 | 0.589 | 1.02 | 0.998 | 1.2 | 1.2 | 0.999
NCI-H727 | 1.07 | 1 | 1 | 0.875 | 0.964 | 0.81 | 0.98 | 1.01 | 0.979 | 1.01 | 0.535 | 0.512 | 0.731 | 0.55 | 0.666 | 0.891 | 0.896 | 0.801 | 0.782 | 0.94
H3255 | 1.01 | 0.925 | 0.866 | 0.94 | 1.1 | 0.955 | 1 | 0.988 | 0.978 | 1.11 | 0.768 | 0.676 | 0.697 | 0.759 | 0.736 | 0.682 | 0.856 | 0.816 | 0.863 | 1.05
NCI-H1437 | 1.05 | 0.981 | 0.953 | 0.996 | 0.991 | 1.04 | 1.02 | 0.993 | 0.995 | 0.959 | 0.993 | 1 | 0.946 | 0.972 | 1.06 | 0.629 | 0.456 | 0.451 | 0.639 | 0.548
LU99A | 0.968 | 0.995 | 0.887 | 1.03 | 0.893 | 1.04 | 0.992 | 0.895 | 0.919 | 0.964 | 0.559 | 0.589 | 0.581 | 0.568 | 0.611 | 1.14 | 1.1 | 1.1 | 1.05 | 1.16
HCC-827 | 0.904 | 1.08 | 1.06 | 1.04 | 1.06 | 1.06 | 0.934 | 1.04 | 0.991 | 1.02 | 1.01 | 1.01 | 0.962 | 0.93 | 0.939 | 1.07 | 1.02 | 1.07 | 1.08 | 1.01
HCC-366 | 0.986 | 1.03 | 1.03 | 0.988 | 1.04 | 1.04 | 1.04 | 0.97 | 0.935 | 0.934 | 0.489 | 0.475 | 0.396 | 0.54 | 0.49 | 1.07 | 1.01 | 1.06 | 0.987 | 0.979
BEN | 0.885 | 0.949 | 0.735 | 0.788 | 0.865 | 0.964 | 0.97 | 0.904 | 0.972 | 1.01 | 0.976 | 1.01 | 0.826 | 0.858 | 0.987 | 0.897 | 0.921 | 0.799 | 0.881 | 0.936
NCI-H23 | 1.01 | 1.05 | 0.867 | 0.975 | 1.09 | 1 | 1.04 | 0.95 | 0.806 | 0.859 | 0.823 | 0.767 | 0.666 | 0.634 | 0.892 | 0.977 | 0.836 | 1.07 | 1.13 | 0.94
201T | 1.04 | 0.983 | 0.982 | 0.96 | 0.988 | 0.985 | 0.983 | 1.01 | 1 | 0.958 | 1.04 | 0.995 | 0.996 | 0.971 | 0.949 | 1.09 | 1.1 | 1.08 | 1.09 | 1.09
NCI-H460 | 1.02 | 1.08 | 0.955 | 0.968 | 1.06 | 1.01 | 0.99 | 1.01 | 0.957 | 0.94 | 0.721 | 0.493 | 0.575 | 0.492 | 0.571 | 1.2 | 1.18 | 1.08 | 1.11 | 1.12
NCI-H661 | 0.948 | 0.997 | 0.956 | 0.946 | 0.964 | 0.994 | 0.971 | 0.978 | 0.983 | 0.91 | 0.914 | 0.803 | 0.559 | 0.654 | 0.421 | 0.953 | 0.809 | 0.837 | 0.828 | 0.761
HCC-15 | 1.04 | 1.03 | 1.01 | 1.04 | 1.12 | 1 | 0.97 | 0.956 |  | 0.925 | 0.953 | 0.914 | 0.901 | 0.854 | 0.942 | 1.03 | 0.958 | 1.01 | 0.936 | 0.982
NCI-H1563 | 1.06 | 1.06 | 0.97 | 1.07 | 0.973 | 0.972 | 0.974 | 1.01 | 0.981 | 0.957 | 1 | 0.847 | 0.954 | 0.959 | 0.893 | 0.854 | 0.937 | 0.844 | 0.909 | 0.757
ABC-1 | 0.978 | 0.921 | 0.714 | 0.994 | 0.902 | 0.953 | 0.938 | 0.91 | 1.03 | 0.992 | 1.04 | 1.07 | 1.14 | 1.01 | 0.944 | 0.391 | 0.306 | 0.299 | 0.339 | 0.362
LCLC-103H | 1.1 | 1.06 | 1 | 0.919 | 0.973 | 0.968 | 0.957 | 0.933 | 1.02 | 0.913 | 1.06 | 1 | 0.959 | 0.957 | 0.896 | 1.09 | 1.14 | 1.07 | 0.98 | 0.973
NCI-H441 | 1 | 1.05 | 0.901 | 1.08 | 1.13 | 1.11 | 0.892 | 1 | 0.982 | 0.909 | 0.83 | 0.602 | 0.616 | 1.06 | 0.902 | 0.524 |  | 0.617 | 0.508 | 0.447
EPLC-272H | 1.02 | 0.906 | 0.968 | 0.974 | 1.01 | 0.935 | 1.04 | 0.898 | 0.76 | 0.882 | 0.99 | 0.943 | 0.99 | 0.899 | 0.829 | 0.906 | 0.962 | 1.05 |  | 0.856
